{
  "source": "paper PMC6943437",
  "about": "“Coupling the Antimalarial Cell Penetrating Peptide TP10 to Classical Antimalarial Drugs Primaquine and Chloroquine Produces Strongly Hemolytic Conjugates” (Molecules, 2019)",
  "note": "*1 amine or outer side, *2 acyl side, *3 side chain or, on linkers, in order; H or OH if unused. Where a SMILES comes first, the peptide text is derived from it. The star is where a group is joined. NH(CH2)4NH(7-Cl-4-quinolyl) = Clc1ccc2c(NCCCCN*)ccnc2c1; Suc = O=C(CCC(=O)[*:2])[*:1]",
  "data": [
    {"system": "P. falciparum W2", "format": "cell-based", "conditions": "P. falciparum W2 (CQ-resistant), 48 h, n = 3", "description": "All conjugates and their respective parent CPP (Table 1), were screened in vitro for their antiplasmodial activity, using the CQ-resistant P. falciparum W2 strain. The primaquine analogue to 5a, i.e., conjugate 3 where the CPP is TP10, PQ-C4-TP10 (3a), was also included in the study for comparison.\nSynchronized ring-stage P. falciparum parasites (W2 strain) were incubated with test compounds for 48 h in Roswell Park Memorial Institute (RPMI) 1640 medium containing 10% human serum or 0.5% Albumax serum substitute. Parasites were then fixed with 1% formaldehyde in phosphate-buffered saline (PBS), pH 7.4, for […] at RT and labeled with YOYO-1 (1 nM; molecular probes) in 0.1% Triton X-100 in PBS. Parasitemias were determined by flow cytometry, from dot plots (forward scatter versus fluorescence). For 50% inhibitory concentration (IC50) determinations, dose-response studies were performed, with the values normalized to percent control activity, and IC50s were calculated using GraphPad Prism, with data fitted by nonlinear regression.", "units": {"IC50": "µM"}, "values": [
      {"molecule": "CC[C@H](C)[C@H](NC(=O)[C@H](CC(C)C)NC(=O)[C@H](Cc1ccccc1)NC(=O)[C@H](Cc1ccccc1)NC(=O)CCC(=O)NCCCCNc1ccnc2cc(Cl)ccc12)C(=O)N1CCC[C@H]1C(=O)N[C@@H](CCCCN)C(=O)NCC(=O)NCC(=O)N[C@@H](CCCNC(=N)N)C(=O)N[C@@H](CCCCN)C(=O)N[C@@H](CCCCN)C(=O)N[C@@H](CCCNC(=N)N)C(=O)N[C@@H](CCCNC(=N)N)C(=O)N[C@@H](CCC(N)=O)C(=O)N[C@@H](CCCNC(=N)N)C(=O)N[C@@H](CCCNC(=N)N)C(=O)N[C@@H](CCCNC(=N)N)C(=O)N1CCC[C@H]1C(=O)N1CCC[C@H]1C(=O)N[C@@H](CCC(N)=O)C(N)=O", "note": "[5g] ({NH(CH2)4NH(7-Cl-4-quinolyl)-Suc}-FFLIPKGGRKKRRQRRRPPQ-NH2)", "IC50": 8.5},
      {"molecule": "H-RQKRLIRQKRLIRQKRLI-NH2 [DPT-sh2]", "IC50": "> 10"},
      {"molecule": "CC[C@H](C)[C@H](NC(=O)[C@H](CCCCN)NC(=O)[C@H](CCCCN)NC(=O)[C@H](C)NC(=O)[C@H](CC(C)C)NC(=O)[C@H](C)NC(=O)[C@H](C)NC(=O)[C@H](CC(C)C)NC(=O)[C@H](C)NC(=O)[C@H](CCCCN)NC(=O)[C@H](CC(C)C)NC(=O)[C@H](CC(N)=O)NC(=O)[C@@H](NC(=O)[C@H](CCCCN)NC(=O)CNC(=O)[C@H](CC(C)C)NC(=O)[C@H](CC(C)C)NC(=O)[C@H](Cc1ccc(O)cc1)NC(=O)CNC(=O)[C@H](C)NC(=O)[C@H](CO)NC(=O)[C@H](CC(N)=O)NC(=O)[C@H](CC(C)C)NC(=O)[C@@H](NC(=O)[C@H](Cc1c[nH]c2ccccc12)NC(=O)CNC(=O)CCC(=O)NCCCCNc1ccnc2cc(Cl)ccc12)[C@@H](C)O)[C@@H](C)CC)C(=O)N[C@@H](CC(C)C)C(N)=O", "note": "[5b]", "IC50": 5.2},
      {"molecule": "N=C(N)NCCC[C@H](NC(=O)[C@H](CCCNC(=N)N)NC(=O)[C@H](CCCNC(=N)N)NC(=O)[C@H](CCCNC(=N)N)NC(=O)[C@H](CCCNC(=N)N)NC(=O)[C@H](CCCNC(=N)N)NC(=O)[C@H](CCCNC(=N)N)NC(=O)[C@H](CCCNC(=N)N)NC(=O)[C@@H](N)CCCNC(=N)N)C(N)=O", "note": "[R9]", "IC50": "> 10"},
      {"molecule": "N=C(N)NCCC[C@H](NC(=O)[C@H](CCCNC(=N)N)NC(=O)[C@H](CCCNC(=N)N)NC(=O)[C@H](CCCNC(=N)N)NC(=O)[C@H](CCCNC(=N)N)NC(=O)[C@H](CCCNC(=N)N)NC(=O)[C@H](CCCNC(=N)N)NC(=O)[C@H](CCCNC(=N)N)NC(=O)[C@H](CCCNC(=N)N)NC(=O)CCC(=O)NCCCCNc1ccnc2cc(Cl)ccc12)C(N)=O", "note": "[5h]", "IC50": "> 10"},
      {"molecule": "CC[C@H](C)[C@H](NC(=O)[C@H](CCCCN)NC(=O)[C@@H](NC(=O)[C@H](CCC(N)=O)NC(=O)[C@@H](N)CCCNC(=N)N)[C@@H](C)CC)C(=O)N[C@@H](Cc1c[nH]c2ccccc12)C(=O)N[C@@H](Cc1ccccc1)C(=O)N[C@@H](CCC(N)=O)C(=O)N[C@@H](CC(N)=O)C(=O)N[C@@H](CCCNC(=N)N)C(=O)N[C@@H](CCCNC(=N)N)C(=O)N[C@@H](CCSC)C(=O)N[C@@H](CCCCN)C(=O)N[C@@H](Cc1c[nH]c2ccccc12)C(=O)N[C@@H](CCCCN)C(=O)N[C@@H](CCCCN)C(N)=O", "note": "[Penetratin]", "IC50": "> 10"},
      {"molecule": "CC[C@H](C)[C@H](NC(=O)[C@H](CCCCN)NC(=O)[C@@H](NC(=O)[C@H](CCC(N)=O)NC(=O)[C@H](CCCNC(=N)N)NC(=O)CCC(=O)NCCCCNc1ccnc2cc(Cl)ccc12)[C@@H](C)CC)C(=O)N[C@@H](Cc1c[nH]c2ccccc12)C(=O)N[C@@H](Cc1ccccc1)C(=O)N[C@@H](CCC(N)=O)C(=O)N[C@@H](CC(N)=O)C(=O)N[C@@H](CCCNC(=N)N)C(=O)N[C@@H](CCCNC(=N)N)C(=O)N[C@@H](CCSC)C(=O)N[C@@H](CCCCN)C(=O)N[C@@H](Cc1c[nH]c2ccccc12)C(=O)N[C@@H](CCCCN)C(=O)N[C@@H](CCCCN)C(N)=O", "note": "[5i]", "IC50": "> 10"},
      {"molecule": "CC[C@H](C)[C@H](NC(=O)[C@H](CCCCN)NC(=O)[C@@H](NC(=O)[C@H](CCC(=O)O)NC(=O)[C@H](CCCNC(=N)N)NC(=O)[C@H](CCCCN)NC(=O)[C@@H](NC(=O)[C@H](CCCCN)NC(=O)[C@H](CCCCN)NC(=O)[C@H](CCCCN)NC(=O)[C@H](CCCCN)NC(=O)[C@@H](NC(=O)CCC(=O)NCCCCNc1ccnc2cc(Cl)ccc12)C(C)C)[C@@H](C)CC)[C@@H](C)CC)C(N)=O", "note": "[5c] ({NH(CH2)4NH(7-Cl-4-quinolyl)-Suc}-VKKKKIKREIKI-NH2)", "IC50": "> 10"},
      {"molecule": "N=C(N)NCCC[C@H](NC(=O)CN)C(=O)N[C@@H](CCCCN)C(=O)N[C@@H](CCCCN)C(=O)N[C@@H](CCCNC(=N)N)C(=O)N[C@@H](CCCNC(=N)N)C(=O)N[C@@H](CCC(N)=O)C(=O)N[C@@H](CCCNC(=N)N)C(=O)N[C@@H](CCCNC(=N)N)C(=O)N[C@@H](CCCNC(=N)N)C(=O)N1CCC[C@H]1C(=O)N1CCC[C@H]1C(=O)N[C@@H](CCC(N)=O)C(N)=O", "note": "[TAT]", "IC50": "> 10"}
    ]}
  ]
}
